Results from the CheMixHub ionic liquid set.

Experiment: xn = mol fraction of the nth substance listed

C=C[n+]1ccn(CCCC)c1.NCCCC[C@H](N)C(=O)[O-] + O
101.3 kPa
Settings | electrical conductivity [S/m] | viscosity [mPa·s]
293.15 K, x1 = 0.3 | – | 8.51
293.15 K, x1 = 0.5 | – | 90.4
293.15 K, x1 = 0.9 | – | 1909
293.15 K, x1 = 1 | – | 10700
303.15 K, x1 = 0.5 | 2.81 | 69.3
303.15 K, x1 = 0.9 | 1.13 | 1664
303.15 K, x1 = 1 | 0.133 | 6900
308.15 K, x1 = 0.1 | 2.16 | –
313.15 K, x1 = 0.3 | 2.99 | 4.43
313.15 K, x1 = 0.5 | 3.31 | 51.34
323.15 K, x1 = 0.5 | 3.88 | 40.64
333.15 K, x1 = 0.9 | – | 750
343.15 K, x1 = 0.5 | – | 36.74
343.15 K, x1 = 0.9 | – | 223
353.15 K, x1 = 0.1 | – | 1.39
353.15 K, x1 = 0.3 | – | 2.03

CC(=O)[O-].CCC[NH3+] + O
298.15 K, 101 kPa
Settings | electrical conductivity [S/m]
x1 = 0.0032 | 0.713
x1 = 0.005 | 0.905
x1 = 0.0101 | 1.43
x1 = 0.0169 | 1.47
x2 = 0 | 0.043
x2 = 0.1576 | 0.082
x2 = 0.3525 | 0.165
x2 = 0.5506 | 0.401
x2 = 0.6999 | 0.685
x2 = 0.7885 | 0.937
x2 = 0.8198 | 1.06
x2 = 0.8501 | 1.18
x2 = 0.8849 | 1.34
x2 = 0.9041 | 1.44
x2 = 0.9082 | 1.47
x2 = 0.9305 | 1.59
x2 = 0.9455 | 1.65
x2 = 0.965 | 1.65
x2 = 0.9742 | 1.61

CC(=O)[O-].CC[NH+](CC)CC + O
298.15 K, 101 kPa
Settings | viscosity [mPa·s]
x1 = 0.0288 | 6.32
x1 = 0.042 | 8.12
x1 = 0.0638 | 10.7
x1 = 0.0847 | 13.35
x1 = 0.1016 | 14.91
x1 = 0.1457 | 18.6
x1 = 0.2125 | 23.4
x1 = 0.2349 | 24.4
x1 = 0.2904 | 26.5
x1 = 0.3254 | 27.4
x1 = 0.367 | 27.8
x1 = 0.4174 | 28.2
x1 = 0.5162 | 27.6
x1 = 0.5579 | 26.8
x1 = 0.6055 | 26.1
x1 = 0.6604 | 25.3
x1 = 0.7243 | 24.2
x1 = 0.7996 | 22.9
x1 = 0.8899 | 22.7
x1 = 1 | 24.1

CCCCCCCCCCCC[n+]1ccn(C)c1.[Cl-] + O
298.15 K, 100 kPa, frequency 0.001 MHz
Settings | electrical conductivity [S/m]
x1 = 7.207e-05 | 0.035
x1 = 9.009e-05 | 0.043
x1 = 0.0001261 | 0.059
x1 = 0.0001802 | 0.085
x1 = 0.0002162 | 0.102
x1 = 0.0002882 | 0.129
x1 = 0.0003242 | 0.137
x1 = 0.0004143 | 0.155
x1 = 0.0004503 | 0.163
x1 = 0.0004863 | 0.17
x1 = 0.0005223 | 0.177

CCCCCCCCCC[N+](C)(C)C.[Br-] + O
298.15 K, 101 kPa
Settings | viscosity [mPa·s]
x1 = 9.063e-05 | 0.9026
x1 = 0.0001809 | 0.9052
x1 = 0.0002674 | 0.9071
x1 = 0.0003644 | 0.9089
x1 = 0.0004939 | 0.9162
x1 = 0.000699 | 0.9255
x1 = 0.0009049 | 0.9331
x1 = 0.00108 | 0.939
x1 = 0.001236 | 0.9459
x1 = 0.001415 | 0.9542
x1 = 0.001504 | 0.9589
x1 = 0.001656 | 0.9675
x1 = 0.001835 | 0.9775

CCCCCCCCCC[n+]1ccn(C)c1.O=S(=O)([N-]S(=O)(=O)C(F)(F)C(F)(F)F)C(F)(F)C(F)(F)F + O
Settings | electrical conductivity [S/m]
295.15 K, 101 kPa, x2 = 0.14 | 0.11

CCCCCCCCCC[n+]1ccn(C)c1.[Cl-] + O
298.15 K, frequency 5e-05 MHz
Settings | electrical conductivity [S/m]
100 kPa, x1 = 0.0002846 | 0.126
100 kPa, x1 = 0.0003693 | 0.163
100 kPa, x1 = 0.0004125 | 0.177
100 kPa, x1 = 0.0004683 | 0.205
100 kPa, x1 = 0.0005331 | 0.235
100 kPa, x1 = 0.0005997 | 0.262
100 kPa, x1 = 0.0006609 | 0.294
100 kPa, x1 = 0.0007347 | 0.32
100 kPa, x1 = 0.0007922 | 0.347
100 kPa, x1 = 0.0008678 | 0.375
100 kPa, x1 = 0.000929 | 0.4
100 kPa, x1 = 0.0009883 | 0.424
100 kPa, x1 = 0.001073 | 0.44
100 kPa, x1 = 0.001143 | 0.446
100 kPa, x1 = 0.001186 | 0.45
100 kPa, x1 = 0.001274 | 0.458
100 kPa, x1 = 0.001346 | 0.467
100 kPa, x1 = 0.001387 | 0.471
100 kPa, x1 = 0.001452 | 0.479
100 kPa, x1 = 0.001524 | 0.489
100 kPa, x1 = 0.001603 | 0.493
100 kPa, x1 = 0.001637 | 0.497
101.3 kPa, x1 = 0.04436 | 4.7

298.15 K, 101.3 kPa
Settings | electrical conductivity [S/m]
x1 = 6.46e-06 | 0.00385
x1 = 9.55e-06 | 0.00548
x1 = 1.262e-05 | 0.00708
x1 = 1.582e-05 | 0.00872
x1 = 1.894e-05 | 0.0103
x1 = 2.2e-05 | 0.0118
x1 = 2.507e-05 | 0.01334
x1 = 2.8e-05 | 0.0148
x1 = 3.092e-05 | 0.0162
x1 = 3.384e-05 | 0.0176

CCCCCCCCn1cc[n+](C)c1.N[C@@H](CCC(=O)O)C(=O)[O-] + O
298.15 K, 100 kPa
Settings | electrical conductivity [S/m]
x1 = 0.001637 | 0.28
x1 = 0.002301 | 0.358
x1 = 0.002857 | 0.426
x1 = 0.003573 | 0.518
x1 = 0.004181 | 0.593
x1 = 0.004913 | 0.651
x1 = 0.005822 | 0.708
x1 = 0.006748 | 0.759
x1 = 0.008079 | 0.835
x1 = 0.008965 | 0.89
x1 = 0.01029 | 0.928
x1 = 0.01145 | 0.926

CCCCCC[N+](C)(C)C.[Br-] + O
298.15 K, 101 kPa
Settings | electrical conductivity [S/m] | viscosity [mPa·s]
x1 = 0.000888 | – | 0.9148
x1 = 0.001394 | – | 0.9261
x1 = 0.002133 | – | 0.9439
x1 = 0.003331 | – | 0.9727
x1 = 0.004173 | – | 0.9962
x1 = 0.004485 | 1.84 | –
x1 = 0.005042 | – | 1.019
x1 = 0.005996 | – | 1.043
x1 = 0.006874 | – | 1.066
x1 = 0.007743 | – | 1.088
x1 = 0.008657 | – | 1.113
x1 = 0.0096 | – | 1.138
x1 = 0.01046 | – | 1.162
x1 = 0.01139 | – | 1.189
x1 = 0.01245 | – | 1.222

CCCC[N+]1(C)CCCC1.N#C[S-] + O
101 kPa
Settings | viscosity [mPa·s]
298.15 K, x2 = 0.2203 | 68.6
298.15 K, x2 = 0.5252 | 28.9
298.15 K, x2 = 0.783 | 10.04
298.15 K, x2 = 0.8623 | 5.9
308.15 K, x2 = 0.5252 | 19.9
308.15 K, x2 = 0.6634 | 12.37
308.15 K, x2 = 0.8623 | 4.31
308.15 K, x2 = 0.9657 | 1.36
318.15 K, x2 = 0.2203 | 31.6
318.15 K, x2 = 0.8623 | 3.23
318.15 K, x2 = 0.9657 | 1.1
328.15 K, x2 = 0.0853 | 28.9
328.15 K, x2 = 0.783 | 4.19
338.15 K, x2 = 0 | 25.3
338.15 K, x2 = 0.2203 | 17.3
338.15 K, x2 = 0.783 | 3.27
338.15 K, x2 = 0.9657 | 0.79
348.15 K, x2 = 0.2203 | 13.32
348.15 K, x2 = 0.6634 | 4.42
348.15 K, x2 = 0.9657 | 0.69

CCCC[N+]1(C)CCCC1.O=S(=O)([O-])C(F)(F)F + O
100 kPa
Settings | electrical conductivity [S/m] | viscosity [mPa·s]
288.15 K, x2 = 0.0597 | 0.147 | 241.7
288.15 K, x2 = 0.3197 | 0.297 | 98.4
288.15 K, x2 = 0.3766 | 0.344 | 81.5
288.15 K, x2 = 0.7673 | 1.04 | 18.66
293.15 K, x2 = 0.3197 | 0.368 | 76.9
293.15 K, x2 = 0.8612 | 1.72 | 8.54
298.15 K, x2 = 0.0597 | 0.238 | 138.8
298.15 K, x2 = 0.3766 | 0.521 | 51.2
298.15 K, x2 = 0.6794 | 1.15 | 18.33
298.15 K, x2 = 0.7673 | 1.51 | 12.54
298.15 K, x2 = 0.95 | 2.4 | 2.88
303.15 K, x2 = 0.3766 | 0.623 | 41.65
303.15 K, x2 = 0.95 | 2.77 | 2.49
308.15 K, x2 = 0.1203 | 0.415 | 72.5
308.15 K, x2 = 0.3766 | 0.736 | 34.31
313.15 K, x2 = 0.1956 | 0.581 | 47.98
313.15 K, x2 = 0.5819 | 1.42 | 15.25
318.15 K, x2 = 0.1203 | 0.586 | 48.5
318.15 K, x2 = 0.3197 | 0.89 | 28.23
323.15 K, x2 = 0.0597 | 0.612 | 46.94
323.15 K, x2 = 0.1956 | 0.795 | 33.42
323.15 K, x2 = 0.5819 | 1.87 | 11.25
323.15 K, x2 = 0.6794 | 2.43 | 8.12
323.15 K, x2 = 0.95 | 4.45 | 1.52
328.15 K, x2 = 0.3766 | 1.31 | 17.72
333.15 K, x2 = 0.5819 | 2.41 | 8.59
